These results are taken from patent US4317912A, “Tetracyclic indole derivatives” (Farmitalia Carlo Erba S.p.A., priority 1979, dated 1982).

The term LD50 denotes the dose expected to kill half of the subjects tested. Read a low LD50 as greater toxicity.

A short description of data set [1]: Acute (orientative) oral toxicity in mice. As to conditions: mouse, in vivo. The text has this: The male mice for each group were orally treated with drugs at different dose levels for the determination of orientative toxicity.
The test system of data set [2] is spontaneously hypertensive male rats, strain MHS. In words: Anti-hypertensive activity in spontaneously hypertensive rats (MHS), blood pressure and heart rate measured at the tail. The class given is in vivo, rat (spontaneously hypertensive. As to conditions: MHS rats; for Change in BP, 1st day, 1 hr after dose / Change in HR, 1st day, 1 hr after dose / Change in BP, 1st day, 5 hrs after dose / Change in HR, 1st day, 5 hrs after dose / Change in BP, 4th day, 1 hr after dose / Change in HR, 4th day, 1 hr after dose / Change in BP, 4th day, 5 hrs after dose / Change in HR, 4th day, 5 hrs after dose: mean of 4 animals; for Activity compared with Hydralazine and α-methyl-DOPA: 5 mg/kg per os, vs Hydralazine (3 mg/kg per os) and α-methyl-DOPA; for Activity compared with Hydralazine and α-methyl-DOPA / Effect on blood pressure: 1st and 4th day; for Tolerance after repeated administration: four days, 355/1165 2 mg/kg, 355/1226 3 mg/kg, 355/1225 and 355/1229 5 mg/kg per os. How it is done:
Four spontaneously hypertensive male rats, strains MHS, weighing 250-300 g for each group were used.
The animals were treated for four consecutive days. Drugs were administered by gastric gavage, suspended in 5% arabic gum (0.2 ml/100 g body weight). Blood pressure (BP) and heart rate (HR) were measured at the tail by BP Recorder W+W. Blood pressure and heart rate were measured on the 1st and 4th day of treatment 1 hour before and 1 and 5 hours after drug administration.
*Data of LD50 from the literature. In Tables 1 and 2 are reported
the results of the study of the activity of compounds 355/1165 and
355/1166 upon the BP and HR (measured indirectly by means of a tail cuff)
of spontaneous hypertensive rats, MHS strain (4 rats each group). The
compounds were given orally, once a day for 4 consecutive days.

Data set [3] relates to spontaneously hypertensive rats (Okamoto strain). As to the kind of experiment: Anti-hypertensive activity in conscious spontaneously hypertensive rats (Okamoto), carotid artery catheter. The class given is in vivo, rat (spontaneously hypertensive. As to conditions: 3 mg/kg os, mean of 6 animals. The method, then:
Blood pressure recordings were made in conscious hypertensive unrestrained rats weighing approximately 300 g, via a catheter cronically inserted into the left common carotid artery. Implantation of arterial cannula was made under sodium pentobarbital anesthesia (50 mg/kg i.p.). A 1 cm long incision was made through the previously shaved ventral surface of the neck and the tissues overlying the trachea parted by blunt dissection to reveal the carotid artery. The polyethylene catheter used was made with PE 50 tubing, previously filled with saline containing 250 I.U./ml heparin. The tip of the cannula was pushed at least 2 cm inside the vessel toward the heart. The cannula was then firmly tied and passed beneath the skin to emerge from a small incision in the back of the neck. During the postoperative period and before the start of each recording session, the cannula was flushed through daily with saline containing heparin (250 U.I./ml). The experiments were performed two days after surgery. Drugs were administered by gastric gavage.

In data set [1], `CN1CC(CCC#N)C2Cc3cccc4[nH]cc(c34)CC21` (stereo not drawn) [355/1225, Trans-5(10→9)abeo-6-methyl-ergoline-8β-propionitrile] yielded an LD50 at 168 h of 600 mg/kg. Further, in data set [2] (1 mg/kg os), the “Change in BP, 1st day, 1 hr after dose” value is recorded as -28 mmHg; the “Change in HR, 1st day, 1 hr after dose” value is “+5 b/min”; the “Change in BP, 1st day, 5 hrs after dose” value was -17 mmHg; the “Change in HR, 1st day, 5 hrs after dose” value is recorded as -22 b/min. In data set [2] (1 mg/kg os), the “Change in BP, 4th day, 1 hr after dose” value is recorded as -34 mmHg; the “Change in HR, 4th day, 1 hr after dose” value was -40 b/min; the “Change in BP, 4th day, 5 hrs after dose” value was -21 mmHg; the “Change in HR, 4th day, 5 hrs after dose” value is -43 b/min. In data set [2] (5 mg/kg os), the “Change in BP, 1st day, 1 hr after dose” value is given as -67 mmHg; the “Change in HR, 1st day, 1 hr after dose” value was -32 b/min; the “Change in BP, 1st day, 5 hrs after dose” value is -42 mmHg; the “Change in HR, 1st day, 5 hrs after dose” value is given as -4 b/min. For the same compound, in data set [2] (5 mg/kg os), the “Change in BP, 4th day, 1 hr after dose” value is -34 mmHg; the “Change in HR, 4th day, 1 hr after dose” value is listed as -55 b/min; the “Change in BP, 4th day, 5 hrs after dose” value was -21 mmHg; the “Change in HR, 4th day, 5 hrs after dose” value is on record as -59 b/min. Also, in data set [2], the “Activity compared with Hydralazine and α-methyl-DOPA” value was “greater activity”; the “Tolerance after repeated administration” value is given as “No tolerance occurs”. In data set [2] (1 and 5 mg/kg orally), the “Time of peak effect on blood pressure” value was “one hour after dosing”; the “Effect on blood pressure” value was “reduces blood pressure in dose-dependent manner on both the 1st and 4th day of treatment”.

`CN1CC(CC(C#N)C(N)=O)C2=Cc3cccc4[nH]cc(c34)CC21` (stereo not drawn) [355/1229, 2-Cyano-3-[5(10→9)abeo-9,10-didehydro-6-methyl-ergoline-8β]-propionamide]: the LD50 at 168 h in data set [1] came out at 600 mg/kg. Moreover, in data set [2] (1 mg/kg os), the “Change in BP, 1st day, 1 hr after dose” value was -26 mmHg; the “Change in HR, 1st day, 1 hr after dose” value was “+25 b/min”; the “Change in BP, 1st day, 5 hrs after dose” value was -19 mmHg; the “Change in HR, 1st day, 5 hrs after dose” value is -2 b/min. Besides, in data set [2] (1 mg/kg os), the “Change in BP, 4th day, 1 hr after dose” value is -21 mmHg; the “Change in HR, 4th day, 1 hr after dose” value is -18 b/min; the “Change in HR, 4th day, 5 hrs after dose” value is on record as -53 b/min. Moreover, in data set [2] (5 mg/kg os), the “Change in BP, 1st day, 1 hr after dose” value is -26 mmHg; the “Change in HR, 1st day, 1 hr after dose” value was -40 b/min; the “Change in BP, 1st day, 5 hrs after dose” value is listed as -20 mmHg; the “Change in HR, 1st day, 5 hrs after dose” value was -35 b/min. In addition, in data set [2] (5 mg/kg os), the “Change in BP, 4th day, 1 hr after dose” value is reported as -36 mmHg; the “Change in HR, 4th day, 1 hr after dose” value is recorded as -50 b/min; the “Change in BP, 4th day, 5 hrs after dose” value was -45 mmHg; the “Change in HR, 4th day, 5 hrs after dose” value is -55 b/min. In data set [2], the “Activity compared with Hydralazine and α-methyl-DOPA” value was “greater activity”; the “Tolerance after repeated administration” value is reported as “No tolerance occurs”. The “Effect on blood pressure” value in data set [2] (1 and 5 mg/kg orally) is reported as “both dosages reduce BP in a similar way on the 1st day, when during the 4th day the decrease of BP is dose-dependent”.

On to `NNc1nncc2ccccc12` [Hydralazine, reference compound], for which, in data set [2] (1 mg/kg os), the “Change in BP, 1st day, 1 hr after dose” value was determined as 0 mmHg; the “Change in HR, 1st day, 1 hr after dose” value is on record as “+20 b/min”; the “Change in BP, 1st day, 5 hrs after dose” value was -10 mmHg; the “Change in HR, 1st day, 5 hrs after dose” value is listed as “+25 b/min”. In addition, in data set [2] (1 mg/kg os), the “Change in BP, 4th day, 1 hr after dose” value is on record as “+7 mmHg”; the “Change in HR, 4th day, 1 hr after dose” value is reported as “+30 b/min”; the “Change in BP, 4th day, 5 hrs after dose” value is “+2 mmHg”; the “Change in HR, 4th day, 5 hrs after dose” value was “+15 b/min”. Further, in data set [2] (3 mg/kg os), the “Change in BP, 1st day, 1 hr after dose” value is on record as -43 mmHg; the “Change in HR, 1st day, 1 hr after dose” value is reported as “+31 b/min”; the “Change in BP, 1st day, 5 hrs after dose” value is on record as -29 mmHg; the “Change in HR, 1st day, 5 hrs after dose” value is reported as “+34 b/min”. In addition, in data set [2] (3 mg/kg os), the “Change in BP, 4th day, 1 hr after dose” value was -15 mmHg; the “Change in HR, 4th day, 1 hr after dose” value is reported as “+18 b/min”; the “Change in BP, 4th day, 5 hrs after dose” value is on record as “+5 mmHg”; the “Change in HR, 4th day, 5 hrs after dose” value is on record as “+13 b/min”. Besides, the “Effect on heart rate” value in data set [2] (oral, all doses treated (Table 2)) was “no effect on heart rate”. For the same compound, in data set [3] (30'), the “Change in blood pressure after treatment, 30'” value is on record as -25 mmHg and the “Change in heart rate after treatment, 30'” value is on record as “+50 b/min”. For the same compound, in data set [3] (60'), the “Change in blood pressure after treatment, 60'” value is reported as -33 mmHg and the “Change in heart rate after treatment, 60'” value is on record as “+21 b/min”. In addition, in data set [3] (120'), the “Change in blood pressure after treatment, 120'” value is -40 mmHg and the “Change in heart rate after treatment, 120'” value was “+52 b/min”. Also, in data set [3] (240'), the “Change in blood pressure after treatment, 240'” value is -29 mmHg and the “Change in heart rate after treatment, 240'” value was “+3 b/min”. Further, in data set [3] (360'), the “Change in blood pressure after treatment, 360'” value is recorded as -7 mmHg and the “Change in heart rate after treatment, 360'” value is “+3 b/min”.
